Measurements: ChEMBL document CHEMBL6087486, “Monomeric or Homodimer Conjugates of Fibroblast Activation Protein Inhibitor and Cyanine 7 Bearing a Meso-Chloride as Near-Infrared Fluorescence Probes: Design, Synthesis, and Comparative In Vivo Imaging of Distinct Breast Cancer Subtypes” (J Med Chem, 2025)
Calls of active or inactive are those of the source. The rule behind the calls is not given here.

How the values were obtained:
[1] = test system: MDA-MB-231; experiment: Cytotoxicity against human MDA-MB-231 cells at; format: functional, cell-based; conditions: dose < 2.0 µM, time 24.0 hrs
[2] = Biodistribution in tumor of NCG mouse xenografted with human MCF7 cells at 15 uM, iv measured after 1 to 2 hrs by IVIS analysis; format: ADME, organism-based, Neoplasm; conditions: in vivo, time 1-2 hrs
[3] = Drug uptake in human MDA-MB-231 cells assessed as fold increase in fluorescence intensity at 2 uM incubated for 2 hrs by CLSM analysis relative to control; format: functional
[4] = Metabolic stability in mouse liver microsomes assessed as hepatic clearance rate; format: ADME, Microsome; conditions: read-out: CLH
[5] = Ratio of drug uptake in tumor to liver of NCG mouse xenografted with human MDA-MB-231 cells at 15 uM, iv measured after 48 hrs by IVIS analysis; format: ADME, organism-based; conditions: in vivo
[6] = Emission property of compound in methanol assessed as maximal wavelength at 0.5 to 4 uM by […]; format: physicochemical; conditions: dose 0.5-4 µM
[7] = MRT (0 to t) in ICR mouse at 2 mg/kg, iv measured upto 24 hrs by LC-MS/MS analysis; format: ADME, organism-based; conditions: in vivo
[8] = MRT (0 to infinity) in ICR mouse at 2 mg/kg, iv measured upto 24 hrs by LC-MS/MS analysis; format: ADME, organism-based; conditions: in vivo
[9] = Biodistribution in tumor of NCG mouse xenografted with human MDA-MB-231 cells at 15 uM, iv measured for 24 hrs by IVIS analysis; format: ADME, organism-based, Neoplasm; conditions: in vivo
[10] = Metabolic stability in mouse liver microsomes assessed as half life; format: ADME, Microsome
[11] = Drug uptake in human MCF7 cells assessed as fold increase in fluorescence intensity at 2 uM incubated for 2 hrs by CLSM analysis relative to control; format: functional
[12] = Clearance in ICR mouse at 2 mg/kg, iv measured upto 24 hrs by LC-MS/MS analysis; format: ADME, organism-based; conditions: in vivo
[13] = test system: MDA-MB-231; experiment: Cytotoxicity against human MDA-MB-231 cells assessed as survival rate upto 20 uM after 24 hrs by CCK8 assay relative to control; format: functional; conditions: up to 20 µM
[14] = Ratio of drug uptake in tumor to liver of NCG mouse xenografted with human MCF7 cells at 15 uM, iv measured after 72 hrs by IVIS analysis; format: ADME, organism-based; conditions: in vivo
[15] = Metabolic stability in human liver microsomes assessed as hepatic clearance rate; format: ADME, Microsome; conditions: read-out: CLH
[16] = Half life in ICR mouse at 2 mg/kg, iv measured upto 24 hrs by LC-MS/MS analysis; format: ADME, organism-based; conditions: in vivo
[17] = Metabolic stability in human liver microsomes assessed as intrinsic clearance; format: ADME, Microsome; conditions: read-out: CLH
[18] = test system: MCF7; experiment: Antitumor activity against human MCF7 cells xenografted in mouse assessed as tumor shrinkage at 20 mg/kg, iv administered on days 1, 6, 11 and 16 measured on day 10; format: functional, organism-based; conditions: time 10.0 day
[19] = AUC (0 to infinity) in ICR mouse at 2 mg/kg, iv measured upto 24 hrs by LC-MS/MS analysis; format: ADME, organism-based; conditions: in vivo
[20] = Biodistribution in tumor of NCG mouse xenografted with human MCF7 cells assessed as maximum fluorescence intensity at 15 uM, iv measured after 8 hrs by IVIS analysis; format: ADME, organism-based, Neoplasm; conditions: in vivo
[21] = Absorption property of compound in methanol assessed as maximal wavelength at 0.5 to 4 uM by UV-vis spectrophotometry; format: physicochemical; conditions: dose 0.5-4 µM
[22] = Biodistribution in tumor of NCG mouse xenografted with human MDA-MB-231 cells assessed as maximum fluorescence intensity at 15 uM, iv measured for 24 hrs by IVIS analysis; format: ADME, organism-based, Neoplasm; conditions: in vivo
[23] = test system: MCF7; experiment: Cytotoxicity against human MCF7 cells at >=5 uM after 24 hrs by CCK8 assay; format: functional, cell-based
[24] = Tlast in ICR mouse at 2 mg/kg, iv measured upto 24 hrs by LC-MS/MS analysis; format: ADME, organism-based; conditions: in vivo
[25] = Biodistribution in liver of NCG mouse xenografted with human MDA-MB-231 cells at 15 uM, iv measured for 24 hrs by IVIS analysis; format: ADME, organism-based; conditions: in vivo
[26] = test system: MCF7; experiment: Antitumor activity against human MCF7 cells xenografted in mouse assessed as tumor growth inhibition administered intravenously on days 1, 6, 11 and 16 measured on day 21; format: functional; conditions: dose 10-20 mg/kg, route iv, time 21.0 day
[27] = Metabolic stability in mouse liver microsomes assessed as intrinsic clearance; format: ADME, Microsome; conditions: read-out: CLH
[28] = test system: MCF7; experiment: Antitumor activity against human MCF7 cells xenografted in mouse assessed as decrease in tumor volume at 10 mg/kg, iv administered on days 1, 6, 11 and 16 measured on day 10; format: functional, organism-based; conditions: time 10.0 day
[29] = Metabolic stability in human liver microsomes assessed as half life; format: ADME, Microsome
[30] = test system: MCF7; experiment: Cytotoxicity against human MCF7 cells at 20 uM after 24 hrs by CCK8 assay relative to control; format: functional
[31] = test system: MCF7; experiment: Antitumor activity against human MCF7 cells xenografted in mouse assessed as obvious effect at 10 to 20 mg/kg, iv administered on days 1, 6, 11 and 16 measured on day 21; format: functional, organism-based; conditions: dose 10-20 mg/kg, time 21.0 day
[32] = Biodistribution in liver of NCG mouse xenografted with human MCF7 cells at 15 uM, iv measured after 0.5 hrs by IVIS analysis; format: ADME, organism-based; conditions: in vivo
[33] = Volume of distribution at steady state in ICR mouse at 2 mg/kg, iv measured upto 24 hrs by LC-MS/MS analysis; format: ADME, organism-based; conditions: in vivo, read-out: Vdss
[34] = Toxicity in mouse xenografted with human MCF7 cells assessed as change in body weight at 10 to 20 mg/kg, iv administered on days 1, 6, 11 and 16 measured for 21 days; format: organism-based; conditions: in vivo, 504 h, dose 10-20 mg/kg, time 21 day
[35] = test system: MCF7; experiment: Cytotoxicity against human MCF7 cells at; format: functional, cell-based; conditions: dose < 2.0 µM, time 24.0 hrs
[36] = AUC (0 to t) in ICR mouse at 2 mg/kg, iv measured upto 24 hrs by LC-MS/MS analysis; format: ADME, organism-based; conditions: in vivo
[37] = Apparent volume of distribution in ICR mouse at 2 mg/kg, iv measured upto 24 hrs by LC-MS/MS analysis; format: ADME, organism-based; conditions: in vivo, read-out: Vz
[38] = C0 in ICR mouse at 2 mg/kg, iv measured upto 24 hrs by LC-MS/MS analysis; format: ADME, organism-based; conditions: in vivo
[39] = test system: MCF7; experiment: Cytotoxicity against human MCF7 cells at >25 uM after 24 hrs by CCK8 assay; format: functional, cell-based
[40] = test system: MDA-MB-231; experiment: Cytotoxicity against human MDA-MB-231 cells at >25 uM after 24 hrs by CCK8 assay; format: functional, cell-based
[41] = Biodistribution in tumor of NCG mouse xenografted with human MDA-MB-231 cells assessed as maximum fluorescence intensity at 15 uM, iv measured for 2 to 48 hrs by IVIS analysis; format: ADME, organism-based, Neoplasm; conditions: in vivo, time 2-48 hrs
[42] = Biodistribution in tumor of NCG mouse xenografted with human MCF7 cells assessed as increase in retention time at 15 uM, iv measured for 0.5 to 72 hrs by IVIS analysis; format: ADME, organism-based, Neoplasm; conditions: in vivo, time 0.5-72 hrs
[43] = test system: MDA-MB-231; experiment: Cytotoxicity against human MDA-MB-231 cells assessed as survival rate at 20 uM after 24 hrs by CCK8 assay relative to control; format: functional; conditions: read-out: Survival
[44] = Biodistribution in liver of NCG mouse xenografted with human MCF7 cells at 15 uM, iv measured after 4 hrs by IVIS analysis; format: ADME, organism-based; conditions: in vivo
[45] = test system: MCF7; experiment: Cytotoxicity against human MCF7 cells assessed as survival rate at 20 uM after 24 hrs by CCK8 assay relative to control; format: functional; conditions: read-out: Survival
[46] = Ratio of drug uptake in tumor to liver of NCG mouse xenografted with human MDA-MB-231 cells at 15 uM, iv measured upto 72 hrs by IVIS analysis; format: ADME, organism-based; conditions: in vivo
[47] = Biodistribution in tumor of NCG mouse xenografted with human MDA-MB-231 cells assessed as increase in retention time at 15 uM, iv measured for 0.5 to 72 hrs by IVIS analysis; format: ADME, organism-based, Neoplasm; conditions: in vivo, time 0.5-72 hrs
[48] = Biodistribution in tumor of NCG mouse xenografted with human MCF7 cells at 15 uM, iv measured for 0.5 to 72 hrs by IVIS analysis; format: ADME, organism-based, Neoplasm; conditions: in vivo, time 0.5-72 hrs
[49] = Biodistribution in tumor of NCG mouse xenografted with human MDA-MB-231 cells assessed as fluorescence intensity at 15 uM, iv measured after 4 hrs by IVIS analysis; format: ADME, organism-based, Neoplasm; conditions: in vivo
[50] = Biodistribution in tumor of NCG mouse xenografted with human MDA-MB-231 cells 15 uM, iv measured upto 72 hrs by IVIS analysis; format: ADME, organism-based, Neoplasm; conditions: in vivo

SMILES | Activity [1] | fold change (FC) [3] | CLint scaled [4] [mL/min/kg] | Activity [6] [nm] | MRT last at 24 h [7] [min] | MRT inf [8] [min] | half-life [10] [min] | fold change (FC) [11] | clearance [12] [mL/min/kg] | Ratio [14] | CLint scaled [15] [mL/min/kg] | half-life [16] [min] | microsomal CLint [17] [µL/min/mg] | AUC(0-inf) [19] [ng·h/mL] | Activity [21] [nm] | Tlast [24] [h] | microsomal CLint [27] [µL/min/mg] | half-life [29] [min] | Vd [33] [L/kg] | Activity [35] | also measured
C#CCCCN1/C(=C/C=C2\CCCC(/C=C/C3=[N+](CCCc4cn(CCOCCOCCOCCOCCC(=O)N5CCN(CCCN(C)c6ccc7nccc(C(=O)NCC(=O)N8CC(F)(F)C[C@H]8C#N)c7c6)CC5)nn4)c4ccccc4C3(C)C)=C2Cl)C(C)(C)c2ccccc21 | inactive | 431 | 1290 | 820 | 10.4 | 11.4 | 4.3 | 280 | 204 | 2.43 | 228 | 12.5 | 253 | 166 | 783 | 1.5 | 325 | 5.5 | 2.45 | inactive | Drug uptake [2]: Active; Ratio [5]: 4.47; Drug uptake [9]: Active; Survival [13]: ~80%; Activity [18]: Active; Flu intensity [20]: 6.13 10^7No_unit; Flu intensity [22]: 8.43 10^7No_unit; Activity [23]: Active; Drug uptake [25]: Not_active; inhibition [26]: Dose-dependent-effect; Activity [28]: inactive; Activity [30]: 4.5%; Activity [31]: Active; Drug uptake [32]: Not_active; Activity [34]: Non-toxic; AUC(0-t) at 24 h [36]: 165 ng·h/mL; Vd [37]: 3.92 L/kg; C0 at 24 h [38]: 829 ng/mL
CN(CCCN1CCN(C(=O)OC(C)(C)C)CC1)c1ccc2nccc(C(=O)NCC(=O)N3CC(F)(F)C[C@H]3C#N)c2c1 | – | – | – | – | – | – | – | – | – | – | – | – | – | – | – | – | – | – | – | – | Activity [39]: Active; Activity [40]: Active
CN(CCCN1CCN(C(=O)CN2CCN(CC(=O)O)CCN(CC(=O)O)CCN(CC(=O)O)CC2)CC1)c1ccc2nccc(C(=O)NCC(=O)N3CC(F)(F)C[C@H]3C#N)c2c1 | – | – | – | – | – | – | – | – | – | – | – | – | – | – | – | – | – | – | – | – | Activity [39]: Active; Activity [40]: Active
CN(CCCN1CCN(C(=O)CCOCCOCCOCCOCCn2cc(CCCN3/C(=C/C=C4\CCCC(/C=C/C5=[N+](CCCc6cn(CCOCCOCCOCCOCCC(=O)N7CCN(CCCN(C)c8ccc9nccc(C(=O)NCC(=O)N%10CC(F)(F)C[C@H]%10C#N)c9c8)CC7)nn6)c6ccccc6C5(C)C)=C4Cl)C(C)(C)c4ccccc43)nn2)CC1)c1ccc2nccc(C(=O)NCC(=O)N3CC(F)(F)C[C@H]3C#N)c2c1 | inactive | 81 | 1240 | 823 | 36.2 | 63.6 | 4.4 | 45 | 9 | 2.07 | 387 | 690 | 430 | 3650 | 784 | 24 | 313 | 3.2 | 0.583 | inactive | Flu intensity [41]: 2.5 10^8No_unit; Drug uptake [42]: Active; viability at 20 µM [43]: 67%; Drug uptake [44]: Not_active; viability at 20 µM [45]: 60%; Ratio [46]: > 3; Drug uptake [47]: Active; Drug uptake [48]: Active; AUC(0-t) at 24 h [36]: 3600 ng·h/mL; Vd [37]: 9.15 L/kg; Flu intensity [49]: > 2 10^8No_unit; Drug uptake [50]: Active; C0 at 24 h [38]: 16800 ng/mL
